Test results: the NIST ThermoML archive (doi:10.1016/j.jct.2013.06.018)

Test: excess molar enthalpy (molar enthalpy of mixing); xn = mol fraction of the nth substance listed
Settings: 298.15 K, 101 kPa, Liquid, Calvet calorimetry

CCCCCCC [heptane] + CCCO
Settings	excess molar enthalpy [kJ/mol]
x2 = 0.0699	0.428
x2 = 0.1182	0.522
x2 = 0.2088	0.62
x2 = 0.3839	0.661
x2 = 0.4743	0.635
x2 = 0.5332	0.595
x2 = 0.6744	0.48
x2 = 0.7196	0.433
x2 = 0.7698	0.379
x2 = 0.7701	0.37
x2 = 0.8193	0.301
x2 = 0.8566	0.253
x2 = 0.8909	0.202
x2 = 0.8974	0.194
x2 = 0.9343	0.129
x2 = 0.9675	0.067
